Calls of active or inactive are those of the source.
Assays:
[1] = test system: HEK293; assay: NOD1 signaling inhibitors, primary screen, cell-based, luminescence, uHTS (AID 1578); assay type: functional; settings: Homo sapiens
[2] = test system: HEK293; assay: cells; assay type: functional, cell-based; settings: Homo sapiens
[3] = test system: HEK293; assay: cells; assay type: functional, cell-based; settings: Homo sapiens; remark: listed apart in the source
[4] = test system: HEK293; assay: NOD2 signaling inhibitors in MDP-stimulated cells, cell-based, uHTS, luminescence (AID 2001); assay type: functional; settings: Homo sapiens
[5] = target: Nucleotide-binding oligomerization domain-containing protein 1 (Homo sapiens, UniProt Q9Y239); assay: NOD1 signaling inhibitors, SAR follow-up, revised (AID 2333); assay type: functional
Sequence of Nucleotide-binding oligomerization domain-containing protein 1 (Q9Y239 whole entry, the tested form may be a part): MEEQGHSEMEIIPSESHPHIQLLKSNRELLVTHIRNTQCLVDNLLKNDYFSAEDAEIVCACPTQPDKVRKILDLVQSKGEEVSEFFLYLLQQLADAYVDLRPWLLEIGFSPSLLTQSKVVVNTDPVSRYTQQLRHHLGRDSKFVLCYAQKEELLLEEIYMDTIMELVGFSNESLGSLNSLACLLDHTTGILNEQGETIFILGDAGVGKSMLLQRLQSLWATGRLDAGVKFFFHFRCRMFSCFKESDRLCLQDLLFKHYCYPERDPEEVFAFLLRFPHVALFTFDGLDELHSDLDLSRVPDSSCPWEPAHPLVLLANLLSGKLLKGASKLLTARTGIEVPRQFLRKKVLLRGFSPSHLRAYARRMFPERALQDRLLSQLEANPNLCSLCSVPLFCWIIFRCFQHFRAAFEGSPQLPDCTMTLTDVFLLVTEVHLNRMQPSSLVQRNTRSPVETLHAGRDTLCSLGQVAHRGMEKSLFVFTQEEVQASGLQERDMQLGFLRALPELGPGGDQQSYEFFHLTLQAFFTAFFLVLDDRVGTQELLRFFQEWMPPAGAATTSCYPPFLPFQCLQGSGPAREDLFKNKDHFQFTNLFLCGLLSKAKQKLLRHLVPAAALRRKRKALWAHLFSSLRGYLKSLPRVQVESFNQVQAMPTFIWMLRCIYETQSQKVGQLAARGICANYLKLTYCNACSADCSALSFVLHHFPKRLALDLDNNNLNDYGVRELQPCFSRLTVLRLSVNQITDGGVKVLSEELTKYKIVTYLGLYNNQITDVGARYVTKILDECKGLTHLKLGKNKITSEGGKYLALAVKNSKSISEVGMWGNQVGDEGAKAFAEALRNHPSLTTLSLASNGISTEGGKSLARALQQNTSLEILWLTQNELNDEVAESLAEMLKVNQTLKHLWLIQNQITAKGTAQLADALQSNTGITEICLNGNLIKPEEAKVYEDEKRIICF

[6] = test system: INS1; assay: beta cell apoptosis inhibitors, cytokine rescue, dose response, luminescence, retest (AID 449756); assay type: functional, cell-based; settings: Rattus norvegicus;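 also: cell death triggered by IL-1 beta plus TNF-alpha plus IFN-gamma mixture; protective hits raise ATP signal compared with cytokine alone wells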
[7] = Shn3 3'UTR reporter inhibitors, dose response, cell-based, Clone20 osteoblasts, firefly luciferase, cherry-picked (AID 624132); assay type: functional;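 also: firefly luciferase luminescence from reporter carrying the Shn3 3'UTR in osteoblasts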
[8] = HepG2 cell cytotoxicity, dose response, cytotoxicity control for Shn3 inhibitor project, CellTiter-Glo, cherry-picked (AID 624134); assay type: functional, cell-based
[9] = control 3'UTR Renilla luciferase suppression, dose response, counter-screen for Shn3 inhibitor project, cell-based, Clone20-Shn3RL, cherry-picked (AID 624133); assay type: functional
[10] = test system: HEK293; assay: cells; settings: Homo sapiens
[11] = target: T1, RNA-binding protein pos-1 (Caenorhabditis elegans, UniProt G5EF15); assay: inhibitors of POS-1/mex-3 RNA binding, dose response, biochemical, fluorescence polarization (AID 1964);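 also: purified POS-1 fused to maltose binding protein made in E. coli; potency of compounds blocking POS-1 binding to fluorescent RNA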
T1 sequence (G5EF15 whole entry): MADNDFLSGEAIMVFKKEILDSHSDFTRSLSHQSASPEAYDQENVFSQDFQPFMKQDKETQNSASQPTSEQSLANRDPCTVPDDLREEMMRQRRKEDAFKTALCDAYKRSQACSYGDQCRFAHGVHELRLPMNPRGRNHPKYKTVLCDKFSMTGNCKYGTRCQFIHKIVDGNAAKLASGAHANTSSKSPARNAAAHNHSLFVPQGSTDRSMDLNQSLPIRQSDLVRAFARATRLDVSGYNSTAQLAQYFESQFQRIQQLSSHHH

[12] = target: T2, Zinc finger protein mex-5 (Caenorhabditis elegans, UniProt Q9XUB2); assay: MEX-5/TCR-2 RNA interaction inhibitors, dose response, biochemical, C. elegans, fluorescence polarization (AID 1960)
T2 sequence (Q9XUB2 whole entry): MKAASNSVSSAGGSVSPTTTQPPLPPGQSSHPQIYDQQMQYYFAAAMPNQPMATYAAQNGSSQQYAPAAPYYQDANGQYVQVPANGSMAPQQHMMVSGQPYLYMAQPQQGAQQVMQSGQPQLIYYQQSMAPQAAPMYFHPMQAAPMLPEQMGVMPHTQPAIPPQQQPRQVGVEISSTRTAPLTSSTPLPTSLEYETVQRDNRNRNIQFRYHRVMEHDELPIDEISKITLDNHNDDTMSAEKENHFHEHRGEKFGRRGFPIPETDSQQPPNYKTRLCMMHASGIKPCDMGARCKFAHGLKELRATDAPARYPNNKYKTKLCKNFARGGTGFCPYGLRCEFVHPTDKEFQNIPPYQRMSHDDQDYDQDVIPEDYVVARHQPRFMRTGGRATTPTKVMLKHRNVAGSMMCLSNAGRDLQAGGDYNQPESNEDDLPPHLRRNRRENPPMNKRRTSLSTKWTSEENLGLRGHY

[13] = target: FAD-linked sulfhydryl oxidase ALR (Homo sapiens, UniProt P55789); assay: inhibitors of human ALR sulfhydryl oxidase, dose response, biochemical, H2O2 detection, luminescence, cherry-pick (AID 493248)
Sequence of FAD-linked sulfhydryl oxidase ALR (P55789 whole entry): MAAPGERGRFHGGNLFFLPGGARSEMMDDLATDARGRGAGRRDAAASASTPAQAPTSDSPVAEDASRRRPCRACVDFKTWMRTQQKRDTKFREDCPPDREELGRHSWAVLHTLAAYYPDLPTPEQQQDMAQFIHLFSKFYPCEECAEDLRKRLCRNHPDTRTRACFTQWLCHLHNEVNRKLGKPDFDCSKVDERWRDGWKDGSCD

[14] = target: Lysine-specific demethylase 4C (Homo sapiens, UniProt Q9H3R0); assay: GASC-1 (JMJD2C) histone demethylase inhibitors, dose response, biochemical, DELFIA europium, cherry-picked samples (AID 488835); assay type: functional
Sequence of Lysine-specific demethylase 4C (Q9H3R0 whole entry): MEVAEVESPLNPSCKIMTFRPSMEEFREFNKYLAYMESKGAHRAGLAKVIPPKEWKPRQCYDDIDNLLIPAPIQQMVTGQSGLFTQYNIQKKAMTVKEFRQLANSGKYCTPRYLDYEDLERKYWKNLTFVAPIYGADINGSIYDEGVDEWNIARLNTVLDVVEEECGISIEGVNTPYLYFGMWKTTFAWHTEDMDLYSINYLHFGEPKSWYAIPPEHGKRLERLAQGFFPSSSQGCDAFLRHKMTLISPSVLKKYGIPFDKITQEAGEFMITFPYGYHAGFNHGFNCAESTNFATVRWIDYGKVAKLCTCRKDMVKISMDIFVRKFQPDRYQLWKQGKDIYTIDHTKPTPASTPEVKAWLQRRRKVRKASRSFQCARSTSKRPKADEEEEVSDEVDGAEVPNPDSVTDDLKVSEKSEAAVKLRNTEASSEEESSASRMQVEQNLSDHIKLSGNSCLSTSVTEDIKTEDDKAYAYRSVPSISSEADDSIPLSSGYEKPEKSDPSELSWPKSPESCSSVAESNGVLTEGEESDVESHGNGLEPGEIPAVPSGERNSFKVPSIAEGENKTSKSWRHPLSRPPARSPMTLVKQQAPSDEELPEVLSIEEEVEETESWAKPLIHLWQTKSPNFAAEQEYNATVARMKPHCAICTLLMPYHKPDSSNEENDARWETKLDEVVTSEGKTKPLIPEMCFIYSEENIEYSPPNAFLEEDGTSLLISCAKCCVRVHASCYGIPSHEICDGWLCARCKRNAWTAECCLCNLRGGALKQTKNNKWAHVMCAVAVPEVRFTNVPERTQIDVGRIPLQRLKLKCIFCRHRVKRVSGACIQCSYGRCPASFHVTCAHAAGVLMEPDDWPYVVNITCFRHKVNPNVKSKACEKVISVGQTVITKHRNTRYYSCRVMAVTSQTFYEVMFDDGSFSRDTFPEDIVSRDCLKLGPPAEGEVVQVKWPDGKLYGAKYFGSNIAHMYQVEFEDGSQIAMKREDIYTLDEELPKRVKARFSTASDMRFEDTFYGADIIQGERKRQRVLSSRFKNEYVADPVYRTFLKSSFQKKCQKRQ

CC1Sc2ccc(S(=O)(=O)N3CCC(C(=O)Nc4ccc(Cl)cc4)CC3)cc2NC1=O (centres undefined)
active: EC50 [1] 2.15 µM | IC50 [2] 3.16 µM | IC50 [3] 8.24 µM | IC50 [4] 3.93 µM | IC50 [5] 3.11 µM | AC50 [6] 4.55 µM | AC50 [7] 2.42 µM | AC50 [8] 3.26 µM | AC50 [9] 1.6 µM | IC50 [10] 7.68 µM

Oc1cc2c(cc1O)C(c1ccccc1)CNCC2 (centres undefined)
active: EC50 [11] 109 µM | EC50 [12] 24 µM | AC50 [13] 5.38 µM | AC50 [14] 15.2 µM

From ChEMBL document CHEMBL1201862, “PubChem BioAssay data set” (2004)
